Assay: xn = mol fraction of the nth substance listed
Conditions: 101 kPa, Liquid

CC#N [acetonitrile] + O
Conditions	mass density, 298.15 K [kg/m3]	mass density, 303.15 K [kg/m3]	mass density, 308.15 K [kg/m3]	mass density, 313.15 K [kg/m3]	mass density, 318.15 K [kg/m3]	viscosity, 298.15 K [mPa·s]	viscosity, 303.15 K [mPa·s]	viscosity, 308.15 K [mPa·s]	viscosity, 313.15 K [mPa·s]	viscosity, 318.15 K [mPa·s]
x1 = 0.051	978.98	975.65	972.14	969.11	965.89	0.9849	0.8799	0.7964	0.7208	0.6522
x1 = 0.1169	954.73	951.24	947.08	943.32	939.05	0.9567	0.8628	0.7842	0.7155	0.6524
x1 = 0.1971	924.74	921.1	916.51	912.69	908.03	0.8743	0.7931	0.7218	0.6628	0.6069
x1 = 0.2728	900.14	896.29	891.33	887.31	882.39	0.7891	0.7152	0.6502	0.5951	0.5462
x1 = 0.3601	876.35	872.19	866.86	862.67	857.41	0.6953	0.6298	0.5737	0.5266	0.4853
x1 = 0.4417	857.17	852.79	846.98	842.61	837.06	0.6061	0.5574	0.5121	0.4744	0.4435
x1 = 0.5204	841.27	836.65	830.76	826.18	820.41	0.5387	0.4972	0.4606	0.4317	0.4089
x1 = 0.6012	826.9	822.15	816.07	811.38	805.44	0.4802	0.4473	0.4189	0.3959	0.3783
x1 = 0.6671	816.3	811.49	805.22	800.45	794.36	0.4415	0.4138	0.3902	0.3698	0.3556
x1 = 0.7398	805.64	800.78	794.39	789.71	783.69	0.4064	0.3831	0.3633	0.3471	0.3353
x1 = 0.8253	794.81	789.89	783.52	778.81	772.68	0.3722	0.3545	0.3386	0.3256	0.3159
x1 = 0.886	787.78	782.84	776.44	771.75	765.67	0.3561	0.3405	0.3259	0.3142	0.3039
x1 = 0.9389	782.44	777.52	771.07	766.36	760.29	0.3478	0.333	0.3173	0.3061	0.2963
x1 = 0.999	–	–	–	–	–	0.3418	0.3281	0.313	0.301	0.29
x1 = 1	776.69	771.89	765.46	760.86	754.76	0.3417	0.328	0.3129	0.3009	0.2899

— the NIST ThermoML archive (doi:10.1016/j.jct.2005.08.009)
